# Experimental data from the kinase profiling compilation of Christmann-Franck et al. (2016).
# How the values were obtained:
# Test in all cases: KINOMEscan competition binding
# Conditions in all cases: compound 10.0 µM
# ADCK3 (human) = ADCK3 (human) (UniProt Q8NI60)
# CDK13 (human) = CDK13 (human) (UniProt Q14004)
# CDK18 (human) = CDK18 (human) (UniProt Q07002)
# CDK19 (human) = CDK19 (human) (UniProt Q9BWU1)
# CDK4 CCND3 (human) = CDK4 CCND3 (human) (UniProt P11802+P30281)
# CDK9 (human) = CDK9 (human) (UniProt P50750)
# CDKL3 (human) = CDKL3 (human) (UniProt Q8IVW4)
# DCLK1 (human) = DCLK1 (human) (UniProt O15075)
# [1] = test system: EGFR (human), P00533 [L858R]
# EIF2AK2 (human) = EIF2AK2 (human) (UniProt P19525)
# EPHA1 (human) = EPHA1 (human) (UniProt P21709)
# EPHA8 (human) = EPHA8 (human) (UniProt P29322)
# FES (human) = FES (human) (UniProt P07332)
# FGFR2 (human) = FGFR2 (human) (UniProt P21802)
# INSR (human) = INSR (human) (UniProt P06213)
# [2] = biological target: JAK1 JH1 catalytic (human) (UniProt P23458)
# MAP2K3 (human) = MAP2K3 (human) (UniProt P46734)
# MAP2K6 (human) = MAP2K6 (human) (UniProt P52564)
# MAPK14 (human) = MAPK14 (human) (UniProt Q16539)
# MAPKAPK5 (human) = MAPKAPK5 (human) (UniProt Q8IW41)
# MARK3 (human) = MARK3 (human) (UniProt P27448)
# NIM1 (human) = NIM1 (human) (UniProt Q8IY84)
# NTRK2 (human) = NTRK2 (human) (UniProt Q16620)
# PAK6 (human) = PAK6 (human) (UniProt Q9NQU5)
# PI4KB (human) = PI4KB (human) (UniProt Q9UBF8)
# PLK4 (human) = PLK4 (human) (UniProt O00444)
# PRKD2 (human) = PRKD2 (human) (UniProt Q9BZL6)
# PRKG1 (human) = PRKG1 (human) (UniProt Q13976)
# PRPF4B (human) = PRPF4B (human) (UniProt Q13523)
# RIOK2 (human) = RIOK2 (human) (UniProt Q9BVS4)
# RIOK3 (human) = RIOK3 (human) (UniProt O14730)
# RPS6KA5 KD1 (human) = RPS6KA5 KD1 (human) (UniProt O75582)
# SGK110 (human) = SGK110 (human) (UniProt P0C264)
# SRPK3 (human) = SRPK3 (human) (UniProt Q9UPE1)
# STK16 (human) = STK16 (human) (UniProt O75716)
# SYK (human) = SYK (human) (UniProt P43405)
# TEC (human) = TEC (human) (UniProt P42680)
# TESK1 (human) = TESK1 (human) (UniProt Q15569)
# ULK2 (human) = ULK2 (human) (UniProt Q8IYT8)
# [3] = test system: MET (human), P08581 [M1250T]
# Chain of PAK6 (human) (Q9NQU5 whole entry, looked up): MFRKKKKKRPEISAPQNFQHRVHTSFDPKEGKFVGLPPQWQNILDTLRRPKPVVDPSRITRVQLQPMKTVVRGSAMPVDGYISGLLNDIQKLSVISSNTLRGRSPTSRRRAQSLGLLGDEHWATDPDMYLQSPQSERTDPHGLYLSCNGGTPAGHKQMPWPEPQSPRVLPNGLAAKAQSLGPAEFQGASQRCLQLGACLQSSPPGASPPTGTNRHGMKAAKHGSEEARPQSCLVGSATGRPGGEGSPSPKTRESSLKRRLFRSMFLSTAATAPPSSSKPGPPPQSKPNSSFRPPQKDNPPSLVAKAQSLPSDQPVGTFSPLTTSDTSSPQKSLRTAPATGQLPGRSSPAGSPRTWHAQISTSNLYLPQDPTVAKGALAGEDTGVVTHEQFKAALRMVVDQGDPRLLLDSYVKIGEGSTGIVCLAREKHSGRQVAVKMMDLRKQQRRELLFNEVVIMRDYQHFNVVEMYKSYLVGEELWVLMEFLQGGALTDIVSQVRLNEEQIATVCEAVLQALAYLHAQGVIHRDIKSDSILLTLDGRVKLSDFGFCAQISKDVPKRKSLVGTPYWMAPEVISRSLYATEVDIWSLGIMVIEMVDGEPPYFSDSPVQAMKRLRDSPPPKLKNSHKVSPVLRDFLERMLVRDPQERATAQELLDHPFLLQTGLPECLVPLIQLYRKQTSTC
# Chain of PRKG1 (human) (Q13976 whole entry, looked up): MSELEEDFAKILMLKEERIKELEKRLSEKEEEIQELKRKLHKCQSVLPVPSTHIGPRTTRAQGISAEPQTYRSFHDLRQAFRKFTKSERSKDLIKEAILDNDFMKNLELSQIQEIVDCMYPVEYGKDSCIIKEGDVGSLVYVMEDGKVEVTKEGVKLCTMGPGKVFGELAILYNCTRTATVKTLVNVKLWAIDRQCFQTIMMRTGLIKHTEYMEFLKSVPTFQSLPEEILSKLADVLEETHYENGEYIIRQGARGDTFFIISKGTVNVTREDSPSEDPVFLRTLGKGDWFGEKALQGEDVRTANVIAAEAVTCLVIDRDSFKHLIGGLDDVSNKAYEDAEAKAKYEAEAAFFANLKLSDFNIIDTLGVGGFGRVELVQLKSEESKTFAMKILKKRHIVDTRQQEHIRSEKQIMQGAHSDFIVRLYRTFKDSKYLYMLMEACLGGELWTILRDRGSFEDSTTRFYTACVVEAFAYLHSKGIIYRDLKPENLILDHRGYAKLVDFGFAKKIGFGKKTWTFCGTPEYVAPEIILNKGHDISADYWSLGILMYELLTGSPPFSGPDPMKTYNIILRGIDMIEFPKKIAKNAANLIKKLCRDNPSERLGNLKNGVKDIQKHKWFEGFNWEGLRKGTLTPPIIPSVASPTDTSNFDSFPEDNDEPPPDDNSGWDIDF
# Chain of PI4KB (human) (Q9UBF8 whole entry, looked up): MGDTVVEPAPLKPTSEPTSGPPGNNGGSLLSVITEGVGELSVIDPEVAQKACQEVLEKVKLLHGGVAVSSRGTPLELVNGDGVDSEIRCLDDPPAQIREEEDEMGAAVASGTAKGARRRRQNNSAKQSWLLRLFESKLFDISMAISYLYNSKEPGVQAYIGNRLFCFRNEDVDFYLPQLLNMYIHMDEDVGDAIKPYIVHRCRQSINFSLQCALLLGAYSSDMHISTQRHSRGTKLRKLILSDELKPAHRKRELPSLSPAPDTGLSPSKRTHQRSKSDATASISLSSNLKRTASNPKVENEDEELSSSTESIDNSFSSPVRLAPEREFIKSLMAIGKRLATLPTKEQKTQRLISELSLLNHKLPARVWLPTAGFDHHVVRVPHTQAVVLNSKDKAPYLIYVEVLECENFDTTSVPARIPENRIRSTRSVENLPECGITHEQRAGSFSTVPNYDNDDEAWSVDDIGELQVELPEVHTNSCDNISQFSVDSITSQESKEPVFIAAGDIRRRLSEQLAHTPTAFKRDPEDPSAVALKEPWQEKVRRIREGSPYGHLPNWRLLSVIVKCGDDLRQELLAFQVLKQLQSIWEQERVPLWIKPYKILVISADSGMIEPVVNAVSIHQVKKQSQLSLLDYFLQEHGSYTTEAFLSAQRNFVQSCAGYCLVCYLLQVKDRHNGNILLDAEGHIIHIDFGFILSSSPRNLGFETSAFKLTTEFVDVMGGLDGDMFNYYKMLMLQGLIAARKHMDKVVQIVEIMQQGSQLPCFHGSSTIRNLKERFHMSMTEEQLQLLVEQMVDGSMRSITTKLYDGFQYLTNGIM
# Chain of EPHA8 (human) (P29322 whole entry, looked up): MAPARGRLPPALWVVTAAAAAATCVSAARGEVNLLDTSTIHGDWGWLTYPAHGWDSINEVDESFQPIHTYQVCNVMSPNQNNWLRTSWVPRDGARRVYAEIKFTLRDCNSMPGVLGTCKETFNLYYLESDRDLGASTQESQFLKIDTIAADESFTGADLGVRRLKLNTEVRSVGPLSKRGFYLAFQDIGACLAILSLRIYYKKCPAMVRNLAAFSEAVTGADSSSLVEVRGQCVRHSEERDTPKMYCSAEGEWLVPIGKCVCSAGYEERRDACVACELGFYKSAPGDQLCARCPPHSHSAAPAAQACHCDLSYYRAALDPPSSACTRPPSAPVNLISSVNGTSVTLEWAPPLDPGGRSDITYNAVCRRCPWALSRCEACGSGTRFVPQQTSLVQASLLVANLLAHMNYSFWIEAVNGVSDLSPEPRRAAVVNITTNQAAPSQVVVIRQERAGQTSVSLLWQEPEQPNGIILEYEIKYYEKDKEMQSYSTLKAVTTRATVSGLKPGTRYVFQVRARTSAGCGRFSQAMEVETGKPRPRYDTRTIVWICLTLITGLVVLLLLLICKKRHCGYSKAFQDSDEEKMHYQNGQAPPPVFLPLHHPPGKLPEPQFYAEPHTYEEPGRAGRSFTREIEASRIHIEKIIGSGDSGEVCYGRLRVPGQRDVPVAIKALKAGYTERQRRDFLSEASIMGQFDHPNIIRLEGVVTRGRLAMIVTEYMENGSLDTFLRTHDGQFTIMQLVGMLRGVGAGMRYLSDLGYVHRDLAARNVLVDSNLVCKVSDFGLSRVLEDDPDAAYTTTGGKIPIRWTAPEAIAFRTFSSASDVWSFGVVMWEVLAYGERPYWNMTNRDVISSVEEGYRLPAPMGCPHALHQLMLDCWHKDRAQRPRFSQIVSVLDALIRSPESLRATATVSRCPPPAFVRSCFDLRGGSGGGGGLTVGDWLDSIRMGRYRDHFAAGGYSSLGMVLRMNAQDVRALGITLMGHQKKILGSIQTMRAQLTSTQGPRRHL
# Chain of RPS6KA5 KD1 (human) (O75582 whole entry, looked up): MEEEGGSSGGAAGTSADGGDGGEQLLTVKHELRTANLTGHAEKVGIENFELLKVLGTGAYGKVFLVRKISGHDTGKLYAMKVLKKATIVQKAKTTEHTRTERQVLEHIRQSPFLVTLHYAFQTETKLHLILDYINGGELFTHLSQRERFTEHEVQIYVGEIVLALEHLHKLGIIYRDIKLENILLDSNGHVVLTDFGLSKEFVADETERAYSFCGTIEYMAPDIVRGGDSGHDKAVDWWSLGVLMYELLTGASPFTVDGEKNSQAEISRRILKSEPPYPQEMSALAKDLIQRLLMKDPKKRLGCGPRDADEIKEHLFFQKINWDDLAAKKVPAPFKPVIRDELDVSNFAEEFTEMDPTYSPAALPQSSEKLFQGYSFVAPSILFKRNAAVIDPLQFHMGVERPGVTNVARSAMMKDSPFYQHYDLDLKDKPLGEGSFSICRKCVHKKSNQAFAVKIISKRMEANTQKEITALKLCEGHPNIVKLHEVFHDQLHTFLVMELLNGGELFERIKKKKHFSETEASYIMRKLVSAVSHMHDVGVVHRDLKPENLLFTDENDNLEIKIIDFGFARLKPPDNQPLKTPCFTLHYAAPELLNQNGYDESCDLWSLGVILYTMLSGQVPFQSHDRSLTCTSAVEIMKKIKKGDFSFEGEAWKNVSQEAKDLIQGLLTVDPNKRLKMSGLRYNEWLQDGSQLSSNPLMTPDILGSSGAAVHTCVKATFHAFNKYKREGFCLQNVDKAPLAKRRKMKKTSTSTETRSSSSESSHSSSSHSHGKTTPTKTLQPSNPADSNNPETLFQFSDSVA
# Chain of FGFR2 (human) (P21802 whole entry, looked up): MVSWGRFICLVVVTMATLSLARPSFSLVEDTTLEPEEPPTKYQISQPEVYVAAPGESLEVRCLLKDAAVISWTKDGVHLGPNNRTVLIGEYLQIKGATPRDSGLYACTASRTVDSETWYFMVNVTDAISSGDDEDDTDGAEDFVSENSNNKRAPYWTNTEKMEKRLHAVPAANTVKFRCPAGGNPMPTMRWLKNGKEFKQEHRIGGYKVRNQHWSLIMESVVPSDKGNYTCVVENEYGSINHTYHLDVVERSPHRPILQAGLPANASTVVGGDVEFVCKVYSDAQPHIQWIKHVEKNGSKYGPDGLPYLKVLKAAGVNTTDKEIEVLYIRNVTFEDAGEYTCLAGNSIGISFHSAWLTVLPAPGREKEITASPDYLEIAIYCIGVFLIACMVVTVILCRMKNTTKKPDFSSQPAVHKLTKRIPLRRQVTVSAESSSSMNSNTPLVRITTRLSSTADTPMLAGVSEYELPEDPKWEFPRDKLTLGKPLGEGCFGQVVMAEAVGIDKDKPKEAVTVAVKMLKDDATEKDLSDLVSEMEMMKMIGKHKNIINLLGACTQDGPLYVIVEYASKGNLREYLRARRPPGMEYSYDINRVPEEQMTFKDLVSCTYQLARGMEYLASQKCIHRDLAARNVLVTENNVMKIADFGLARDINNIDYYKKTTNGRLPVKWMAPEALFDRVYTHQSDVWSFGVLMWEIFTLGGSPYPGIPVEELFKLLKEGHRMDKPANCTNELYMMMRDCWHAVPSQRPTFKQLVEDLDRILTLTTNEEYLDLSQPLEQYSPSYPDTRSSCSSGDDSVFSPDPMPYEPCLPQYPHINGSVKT
Structure (SMILES),"kinase still bound, per cent of control (ADCK3 (human))","kinase still bound, per cent of control (CDK13 (human))","kinase still bound, per cent of control (CDK18 (human))","kinase still bound, per cent of control (CDK19 (human))","kinase still bound, per cent of control (CDK4 CCND3 (human))","kinase still bound, per cent of control (CDK9 (human))","kinase still bound, per cent of control (CDKL3 (human))","kinase still bound, per cent of control (DCLK1 (human))","kinase still bound, per cent of control (EIF2AK2 (human))","kinase still bound, per cent of control (EPHA1 (human))","kinase still bound, per cent of control (EPHA8 (human))","kinase still bound, per cent of control (FGFR2 (human))","kinase still bound, per cent of control (INSR (human))","kinase still bound, per cent of control [2]","kinase still bound, per cent of control (MAP2K3 (human))","kinase still bound, per cent of control (MAP2K6 (human))","kinase still bound, per cent of control (MAPK14 (human))","kinase still bound, per cent of control (MAPKAPK5 (human))","kinase still bound, per cent of control (MARK3 (human))","kinase still bound, per cent of control (NIM1 (human))",also measured
COc1cc2c(Nc3ccc(NC(=O)c4ccccc4)cc3)ncnc2cc1OCCCN1CCOCC1,90%,100%,75%,100%,100%,100%,100%,73%,100%,100%,83%,89%,77%,100%,100%,86%,100%,100%,96%,100%,"kinase still bound, per cent of control [1]: 8.8%; kinase still bound, per cent of control (FES (human)): 100%; kinase still bound, per cent of control (NTRK2 (human)): 17%; kinase still bound, per cent of control (PAK6 (human)): 95%; kinase still bound, per cent of control (PI4KB (human)): 100%; kinase still bound, per cent of control (PLK4 (human)): 2%; kinase still bound, per cent of control (PRKD2 (human)): 100%; kinase still bound, per cent of control (PRKG1 (human)): 100%; kinase still bound, per cent of control (PRPF4B (human)): 97%; kinase still bound, per cent of control (RIOK2 (human)): 100%; kinase still bound, per cent of control (RIOK3 (human)): 100%; kinase still bound, per cent of control (RPS6KA5 KD1 (human)): 100%; kinase still bound, per cent of control (SGK110 (human)): 100%; kinase still bound, per cent of control (SRPK3 (human)): 100%; kinase still bound, per cent of control (STK16 (human)): 100%; kinase still bound, per cent of control (SYK (human)): 69%; kinase still bound, per cent of control (TEC (human)): 76%; kinase still bound, per cent of control (TESK1 (human)): 59%; kinase still bound, per cent of control (ULK2 (human)): 91%"
CCCS(=O)(=O)Nc1ccc(F)c(C(=O)c2c[nH]c3ncc(Cl)cc23)c1F,92%,100%,73%,0.8%,70%,86%,100%,52%,74%,100%,95%,59%,83%,77%,53%,47%,60%,100%,74%,92%,"kinase still bound, per cent of control [1]: 72%; kinase still bound, per cent of control [3]: 78%; kinase still bound, per cent of control (NTRK2 (human)): 82%; kinase still bound, per cent of control (PAK6 (human)): 45%; kinase still bound, per cent of control (PI4KB (human)): 25%; kinase still bound, per cent of control (PLK4 (human)): 27%; kinase still bound, per cent of control (PRKD2 (human)): 100%; kinase still bound, per cent of control (PRKG1 (human)): 100%; kinase still bound, per cent of control (PRPF4B (human)): 82%; kinase still bound, per cent of control (RIOK2 (human)): 3%; kinase still bound, per cent of control (RIOK3 (human)): 100%; kinase still bound, per cent of control (RPS6KA5 KD1 (human)): 100%; kinase still bound, per cent of control (SGK110 (human)): 100%; kinase still bound, per cent of control (SRPK3 (human)): 100%; kinase still bound, per cent of control (STK16 (human)): 18%; kinase still bound, per cent of control (SYK (human)): 100%; kinase still bound, per cent of control (TEC (human)): 100%; kinase still bound, per cent of control (TESK1 (human)): 13%; kinase still bound, per cent of control (ULK2 (human)): 60%"
N#C/C(=C1/Nc2ccccc2S1)c1ccnc(NCCc2cccnc2)n1,91%,61%,92%,100%,49%,60%,100%,78%,72%,100%,100%,100%,92%,100%,33%,64%,57%,100%,100%,100%,"kinase still bound, per cent of control (FES (human)): 100%; kinase still bound, per cent of control [3]: 100%; kinase still bound, per cent of control (NTRK2 (human)): 56%; kinase still bound, per cent of control (PAK6 (human)): 78%; kinase still bound, per cent of control (PI4KB (human)): 20%; kinase still bound, per cent of control (PLK4 (human)): 68%; kinase still bound, per cent of control (PRKD2 (human)): 100%; kinase still bound, per cent of control (PRKG1 (human)): 100%; kinase still bound, per cent of control (PRPF4B (human)): 79%; kinase still bound, per cent of control (RIOK2 (human)): 2.4%; kinase still bound, per cent of control (RIOK3 (human)): 33%; kinase still bound, per cent of control (RPS6KA5 KD1 (human)): 100%; kinase still bound, per cent of control (SGK110 (human)): 100%; kinase still bound, per cent of control (SRPK3 (human)): 23%; kinase still bound, per cent of control (STK16 (human)): 13%; kinase still bound, per cent of control (SYK (human)): 100%; kinase still bound, per cent of control (TEC (human)): 92%; kinase still bound, per cent of control (TESK1 (human)): 87%; kinase still bound, per cent of control (ULK2 (human)): 83%"
